Experimental findings from PubChem BioAssay AID2202556 (NIEHS Division of Translational Toxicology (DTT)) are described below.

Records with an inconclusive call do not appear. Active and inactive are the calls of the source. How the calls were made is not given here.

The data set concerns in vivo alkaline comet assay, DNA damage, mouse/rat. As to the kind of experiment: In vivo alkaline comet assay, summary data. From the text:
The comet assay examines the ability of substances to cause DNA damage in cells from a variety of different tissues, such as liver, stomach, lung, or brain.
There are multiple forms of DNA damage, including DNA adducts (addition of a chemical structure to a DNA base), oxidative damage to DNA, and breaks in one or both strands. The comet assay can detect single and double strand breaks, DNA adducts, and DNA crosslinks, as well as breaks along the DNA strand that are produced during the normal processes of DNA repair or replication. Thus, the comet assay provides a snapshot of the balance between DNA damage and DNA repair at the time the tissue was harvested.
The DNA damage detected by the comet assay can resolve in several ways. The damage is most often rapidly and correctly repaired. Alternately, a cell that sustains DNA damage may die without passing the damage on to daughter cells following cell division. However, if the damage is not repaired or is repaired incorrectly, the daughter cells may inherit the damage as mutations or chromosome breaks, which are found in many human diseases including cancer. The outcome of the detected DNA damage is unknown.
The comet assay provides the advantage of being able to look at chemical effects on DNA in tissues other than bone marrow, which is the main source of cells used to examine chemical-induced chromosome damage and mutation induction in animals (see Micronucleus Assay).
Animals (rats or mice) are treated with a test substance once or multiple times, and DNA damage is usually evaluated 3-6 hours after the final treatment.
The animal tissue is rapidly minced in a buffer solution, combined with agarose, and layered onto slides. The slides are placed in a solution that removes the cellular and nuclear membranes and cellular proteins, leaving behind the nuclear DNA. The slides are then incubated in an alkaline solution (pH > 13) to convert alkali-labile sites into strand breaks and allow the DNA to unwind. Next, the slides are subjected to an electrical field in a tank filled with a buffer solution. Broken DNA, having a negative charge, migrates out of the area of the nucleus toward the positively charged anode. This forms a comet-like shape with the nucleus at the "head" and the migrated DNA as the "tail." All steps of the method are performed using ice-cold solutions and buffers. After this process, the DNA is stained with a fluorescent dye and cells are analyzed using Comet Assay IV Imaging Software.
For each cell, DNA migration is analyzed using an automated software system attached to a microscope. The extent of damage is characterized as the percent tail DNA (how much DNA migrated to the tail, compared to the total DNA as a percentage). At least 100 cells per sample are evaluated; current guidelines for the assay recommend analysis of at least 150 cells per sample. The data is statistically analyzed to determine if there is a significant increase in percent tail DNA in chemical-exposed animals compared to the controls (animals not exposed).
Dose-related responses, as well as significant dose groups, are considered during the evaluation of the data. For a positive test, both a dose response and at least one significant dose group are required. If only one of these measures is present, the test is considered to be equivocal. The absence of either condition results in a negative test. The final conclusions for comet assays are determined by considering the results of statistical analyses, reproducibility of any observed effects, and the magnitude of the effects. Ultimately, both biological and statistical significance are considered when reaching a final conclusion.
For more details, please refer to the original protocol: https://ntp.niehs.nih.gov/research/apptoxres/genetic and publication: https://www.ncbi.nlm.nih.gov/pubmed/26212309

For `C=CC(N)=O`, the outcome was “active; positive”.

Take `CNC(=O)Oc1cccc2ccccc12`: the outcome was active.

Turning to `Cc1ccc(N(C)C)cc1`, the outcome was “active; negative”.

Turning to `CC[C@]1(O)C[C@H]2CN(CCc3c([nH]c4ccccc34)[C@@](C(=O)OC)(c3cc4c(cc3OC)N(C=O)[C@H]3[C@@](O)(C(=O)OC)[C@H](OC(C)=O)[C@]5(CC)C=CCN6CC[C@]43[C@@H]65)C2)C1`, the outcome was active.

Regarding `[O]=[Sb][O][Sb]=[O]`, the outcome was “active; positive”.

Consider `C=CC(=O)NC(C)(C)C`, for which the outcome was “active; positive”.

`ClCC1CO1` (centres undefined): the outcome was “active; positive”.

On to `NC(=O)NO`, for which the outcome was “active; positive”.

`Nc1nc(=O)n([C@@H]2CS[C@H](CO)O2)cc1F`: the outcome is “active; positive”.

In the case of `OC(CCl)CCl`, the outcome is “active; positive”.

Regarding `CNNC`, the result was active.

For `C=CC1(C)OC(=O)N(c2cc(Cl)cc(Cl)c2)C1=O` (centres undefined), the outcome was “active; positive”.

In the case of `NC(=O)CC(N)=O`, the outcome is “active; positive”.

Consider `c1ccoc1`, for which the outcome is “active; positive”.

On to `O=C([O-])[O-].O=C([O-])[O-].[OH-].[OH-].[OH-].[OH-].[OH-].[OH-].[Zn+2].[Zn+2].[Zn+2].[Zn+2].[Zn+2]`, for which the result was active.

For `CC(C)c1ccccc1`, the outcome was “active; positive”.

In the case of `CCOS(C)(=O)=O`, the outcome was active.

`CC(=O)CC(C)=O`: the outcome is “active; positive”.

For `CCNC(=O)CC(C)=O`, the outcome was “active; positive”.
